Data taken from ChEMBL document CHEMBL4138278, “Neothioviridamide, a Polythioamide Compound Produced by Heterologous Expression of a Streptomyces sp. Cryptic RiPP Biosynthetic Gene Cluster” (J Nat Prod, 2018).

Experiments:
Type in all cases: functional, cell-based
[1] = Cytotoxicity against human ACC-MESO1 cells assessed as reduction in cell viability after 72 hrs by CellTiter-Glo luminescence assay; settings: ACC-MESO-1, 72 h
[2] = test system: Jurkat; assay: Cytotoxicity against human Jurkat cells assessed as reduction in cell viability after 72 hrs by CellTiter-Glo luminescence assay
[3] = test system: SK-OV-3; assay: Cytotoxicity against human SKOV3 cells assessed as reduction in cell viability after 72 hrs by CellTiter-Glo luminescence assay; settings: SK-OV-3, 72 h

CSCCC(NC(=S)C(NC(=O)C(C)=O)C(C)C)C(=S)NC(C)C(=O)NC(C)C(=S)NC(C)C(=S)NC(C)C(=O)NC1C(=O)NC(C(C)C)C(=O)NC(C)C(=O)NC(Cc2ccccc2)C(=O)NC(C(O)c2cn(C)c[n+]2C)C(=O)N/C=C\SC1C (stereo not drawn)
IC50 [1]: 700 nM
IC50 [2]: 400 nM
IC50 [3]: 2100 nM
